Results reported in PubChem BioAssay (NCI).
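Tested at 5 concentrations; 48 h exposure; 96-well plates; endpoints linearly interpolated, else capped at highest concentration. TGI marks complete inhibition of growth.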

What was measured:
Assay in all cases: NCI tumour cell line growth inhibition, 48 h
786-0 renal = system: 786-0 renal
A498 renal = system: A498 renal
A549 NSCLC = system: A549 NSCLC
ACHN renal = system: ACHN renal
CCRF-CEM leukemia = system: CCRF-CEM leukemia
COLO 205 colon = system: COLO 205 colon
DLD-1 colon = system: DLD-1 colon
DMS 114 small cell lung = system: DMS 114 small cell lung
DMS 273 small cell lung = system: DMS 273 small cell lung
EKVX NSCLC = system: EKVX NSCLC
HCC-2998 colon = system: HCC-2998 colon
HCT-116 colon = system: HCT-116 colon
HL-60(TB) leukemia = system: HL-60(TB) leukemia
HOP-18 NSCLC = system: HOP-18 NSCLC
HOP-62 NSCLC = system: HOP-62 NSCLC
HOP-92 NSCLC = system: HOP-92 NSCLC
HT29 colon = system: HT29 colon
IGROV1 ovarian = system: IGROV1 ovarian
K-562 leukemia = system: K-562 leukemia
KM12 colon = system: KM12 colon
KM20L2 colon = system: KM20L2 colon
LOX IMVI melanoma = system: LOX IMVI melanoma
LXFL 529 NSCLC = system: LXFL 529 NSCLC
M14 melanoma = system: M14 melanoma
M19-MEL melanoma = system: M19-MEL melanoma
MALME-3M melanoma = system: MALME-3M melanoma
MOLT-4 leukemia = system: MOLT-4 leukemia
NCI-H226 lung = system: NCI-H226 lung
NCI-H23 lung = system: NCI-H23 lung
NCI-H522 lung = system: NCI-H522 lung
OVCAR-3 ovarian = system: OVCAR-3 ovarian
OVCAR-5 ovarian = system: OVCAR-5 ovarian
OVCAR-8 ovarian = system: OVCAR-8 ovarian
RPMI-8226 leukemia = system: RPMI-8226 leukemia
RXF 393 renal = system: RXF 393 renal
SF-268 CNS = system: SF-268 CNS
SF-295 CNS = system: SF-295 CNS
SF-539 CNS = system: SF-539 CNS
SK-MEL-2 melanoma = system: SK-MEL-2 melanoma
SK-MEL-28 melanoma = system: SK-MEL-28 melanoma
SK-OV-3 ovarian = system: SK-OV-3 ovarian
SN12C renal = system: SN12C renal
SNB-19 CNS = system: SNB-19 CNS
SNB-75 CNS = system: SNB-75 CNS
SNB-78 CNS = system: SNB-78 CNS
SR leukemia = system: SR leukemia
SW-620 colon = system: SW-620 colon
TK-10 renal = system: TK-10 renal
U251 CNS = system: U251 CNS
UACC-257 melanoma = system: UACC-257 melanoma
UACC-62 melanoma = system: UACC-62 melanoma
UO-31 renal = system: UO-31 renal
XF 498 CNS = system: XF 498 CNS
CAKI-1 renal = system: CAKI-1 renal
HCT-15 colon = system: HCT-15 colon
NCI-H460 lung = system: NCI-H460 lung
OVCAR-4 ovarian = system: OVCAR-4 ovarian
RXF-631 renal = system: RXF-631 renal
SK-MEL-5 melanoma = system: SK-MEL-5 melanoma
MCF7 breast = system: MCF7 breast
NCI/ADR-RES ovarian = system: NCI/ADR-RES ovarian
P388 leukemia = system: P388 leukemia
P388/ADR leukemia = system: P388/ADR leukemia
SN12K1 renal = system: SN12K1 renal

Clc1ccc2cccc3c2c1C1OC3c2ccccc21 (stereo not drawn)
TGI (786-0 renal): > 100 µM | TGI (A498 renal): > 100 µM | TGI (A549 NSCLC): > 100 µM | TGI (ACHN renal): > 100 µM | TGI (CCRF-CEM leukemia): > 100 µM | TGI (COLO 205 colon): > 100 µM | TGI (DLD-1 colon): > 100 µM | TGI (DMS 114 small cell lung): > 100 µM | TGI (DMS 273 small cell lung): > 100 µM | TGI (EKVX NSCLC): > 100 µM | TGI (HCC-2998 colon): > 100 µM | TGI (HCT-116 colon): > 100 µM | TGI (HL-60(TB) leukemia): > 100 µM | TGI (HOP-18 NSCLC): > 100 µM | TGI (HOP-62 NSCLC): > 100 µM | TGI (HOP-92 NSCLC): > 100 µM | TGI (HT29 colon): > 100 µM | TGI (IGROV1 ovarian): > 100 µM | TGI (K-562 leukemia): > 100 µM | TGI (KM12 colon): > 100 µM | TGI (KM20L2 colon): > 100 µM | TGI (LOX IMVI melanoma): > 100 µM | TGI (LXFL 529 NSCLC): > 100 µM | TGI (M14 melanoma): > 100 µM | TGI (M19-MEL melanoma): > 100 µM | TGI (MALME-3M melanoma): > 100 µM | TGI (MOLT-4 leukemia): > 100 µM | TGI (NCI-H226 lung): > 100 µM | TGI (NCI-H23 lung): > 100 µM | TGI (NCI-H522 lung): > 100 µM | TGI (OVCAR-3 ovarian): > 100 µM | TGI (OVCAR-5 ovarian): > 100 µM | TGI (OVCAR-8 ovarian): > 100 µM | TGI (RPMI-8226 leukemia): > 100 µM | TGI (RXF 393 renal): > 100 µM | TGI (SF-268 CNS): > 100 µM | TGI (SF-295 CNS): > 100 µM | TGI (SF-539 CNS): > 100 µM | TGI (SK-MEL-2 melanoma): > 100 µM | TGI (SK-MEL-28 melanoma): > 100 µM | TGI (SK-OV-3 ovarian): > 100 µM | TGI (SN12C renal): > 100 µM | TGI (SNB-19 CNS): > 100 µM | TGI (SNB-75 CNS): > 100 µM | TGI (SNB-78 CNS): > 100 µM | TGI (SR leukemia): > 100 µM | TGI (SW-620 colon): > 100 µM | TGI (TK-10 renal): > 100 µM | TGI (U251 CNS): > 100 µM | TGI (UACC-257 melanoma): > 100 µM | TGI (UACC-62 melanoma): > 100 µM | TGI (UO-31 renal): > 100 µM | TGI (XF 498 CNS): > 100 µM

O=C(O)CSc1n[nH]c(-c2ccccc2O)n1
TGI (786-0 renal): > 100 µM | TGI (A498 renal): > 100 µM | TGI (A549 NSCLC): > 100 µM | TGI (ACHN renal): > 100 µM | TGI (CAKI-1 renal): > 100 µM | TGI (CCRF-CEM leukemia): > 100 µM | TGI (DLD-1 colon): > 100 µM | TGI (DMS 114 small cell lung): > 100 µM | TGI (DMS 273 small cell lung): > 100 µM | TGI (EKVX NSCLC): > 100 µM | TGI (HCC-2998 colon): > 100 µM | TGI (HCT-116 colon): > 100 µM | TGI (HCT-15 colon): > 100 µM | TGI (HL-60(TB) leukemia): > 100 µM | TGI (HOP-92 NSCLC): > 100 µM | TGI (HT29 colon): > 100 µM | TGI (IGROV1 ovarian): > 100 µM | TGI (K-562 leukemia): > 100 µM | TGI (KM20L2 colon): > 100 µM | TGI (LOX IMVI melanoma): > 100 µM | TGI (LXFL 529 NSCLC): > 100 µM | TGI (M14 melanoma): > 100 µM | TGI (M19-MEL melanoma): > 100 µM | TGI (MALME-3M melanoma): > 100 µM | TGI (MOLT-4 leukemia): > 100 µM | TGI (NCI-H226 lung): > 100 µM | TGI (NCI-H23 lung): > 100 µM | TGI (NCI-H460 lung): > 100 µM | TGI (OVCAR-3 ovarian): > 100 µM | TGI (OVCAR-4 ovarian): > 100 µM | TGI (OVCAR-5 ovarian): > 100 µM | TGI (OVCAR-8 ovarian): > 100 µM | TGI (RPMI-8226 leukemia): > 100 µM | TGI (RXF 393 renal): > 100 µM | TGI (RXF-631 renal): > 100 µM | TGI (SF-268 CNS): > 100 µM | TGI (SF-295 CNS): > 100 µM | TGI (SF-539 CNS): > 100 µM | TGI (SK-MEL-2 melanoma): > 100 µM | TGI (SK-MEL-28 melanoma): > 100 µM | TGI (SK-MEL-5 melanoma): > 100 µM | TGI (SN12C renal): > 100 µM | TGI (SNB-19 CNS): > 100 µM | TGI (SNB-75 CNS): > 100 µM | TGI (SNB-78 CNS): > 100 µM | TGI (SR leukemia): > 100 µM | TGI (SW-620 colon): > 100 µM | TGI (TK-10 renal): > 100 µM | TGI (U251 CNS): > 100 µM | TGI (UACC-257 melanoma): > 100 µM | TGI (UACC-62 melanoma): > 100 µM | TGI (UO-31 renal): > 100 µM | TGI (XF 498 CNS): > 100 µM

Cc1ccc(C(=O)OC(C(=O)O)C(OC(=O)c2ccc(C)cc2)C(=O)O)cc1 (stereo not drawn) (tested in a mixture with another compound)
TGI (A498 renal): 24.5 µM | TGI (A549 NSCLC): 22.3 µM | TGI (CAKI-1 renal): 21.2 µM | TGI (CCRF-CEM leukemia): 17 µM | TGI (COLO 205 colon): 10.5 µM | TGI (DLD-1 colon): 21.3 µM | TGI (DMS 114 small cell lung): 12.9 µM | TGI (DMS 273 small cell lung): 10.7 µM | TGI (EKVX NSCLC): 26.6 µM | TGI (HCC-2998 colon): 10.1 µM | TGI (HCT-116 colon): 13.8 µM | TGI (HCT-15 colon): 17.6 µM | TGI (HL-60(TB) leukemia): 4.08 µM | TGI (HOP-18 NSCLC): 4.39 µM | TGI (HOP-62 NSCLC): 29.2 µM | TGI (HOP-92 NSCLC): 11.8 µM | TGI (HT29 colon): 10.2 µM | TGI (IGROV1 ovarian): 26.5 µM | TGI (K-562 leukemia): 7.87 µM | TGI (KM12 colon): 19 µM | TGI (KM20L2 colon): 13 µM | TGI (LOX IMVI melanoma): 20.6 µM | TGI (M19-MEL melanoma): 15.1 µM | TGI (MALME-3M melanoma): 12 µM | TGI (MCF7 breast): 11.8 µM | TGI (MOLT-4 leukemia): 14.3 µM | TGI (NCI-H226 lung): 24.8 µM | TGI (NCI-H23 lung): 12.8 µM | TGI (NCI-H460 lung): 10.3 µM | TGI (NCI-H522 lung): 11.4 µM | TGI (NCI/ADR-RES ovarian): 23 µM | TGI (OVCAR-3 ovarian): 22.4 µM | TGI (OVCAR-4 ovarian): 21.6 µM | TGI (OVCAR-5 ovarian): 24.6 µM | TGI (OVCAR-8 ovarian): 31.6 µM | TGI (P388 leukemia): 7.53 µM | TGI (P388/ADR leukemia): 11.7 µM | TGI (RPMI-8226 leukemia): 9.23 µM | TGI (RXF 393 renal): 16 µM | TGI (SF-268 CNS): 28.3 µM | TGI (SF-295 CNS): 16.7 µM | TGI (SF-539 CNS): 25.2 µM | TGI (SK-MEL-2 melanoma): 23.5 µM | TGI (SK-MEL-28 melanoma): 19.7 µM | TGI (SK-MEL-5 melanoma): 7.72 µM | TGI (SK-OV-3 ovarian): 28.2 µM | TGI (SN12C renal): 32 µM | TGI (SN12K1 renal): 8.41 µM | TGI (SNB-19 CNS): 25.6 µM | TGI (SNB-75 CNS): 14.8 µM | TGI (SNB-78 CNS): 33.8 µM | TGI (SW-620 colon): 10.2 µM | TGI (U251 CNS): 22.2 µM | TGI (UACC-257 melanoma): 13.7 µM | TGI (UACC-62 melanoma): 19.3 µM | TGI (UO-31 renal): 14.5 µM | TGI (XF 498 CNS): 10.2 µM
